Laboratory results from US20060049177A1, “Induction heating cooker” (LG Electronics Inc., priority 2004, published 2006).
Like-named read-outs stand apart in the source and are kept apart here.

What was measured:
[1] = tested on: HIV-1; assay: in vitro anti-HIV assay: inhibition of HIV-induced cytopathic effect in MT-4 cells (MTT); assay type: cell-based; details: for IC50: HIV-infected MT-4 cells, dose achieving 50% protection against cytopathic effect, MTT, OD 540 nm, mean value, read-out: IC50; for SI: selectivity index = ratio of CC50 to IC50
Procedure: (§1) A rapid, sensitive and automated assay procedure was used for the in vitro evaluation of anti-HIV agents. An […] T4-cell line, MT-4, which was previously shown (Koyanagi et al., Int. J. Cancer, 36, 445-451, 1985) to be highly susceptible to and permissive for HIV infection, served as the target cell line. Inhibition of the HIV-induced cytopathic effect was used as the end point. The viability of both HIV- and mock-infected cells was assessed spectrophotometrically via the in situ reduction of 3-(4,5-dimethylthiazol-2-yl)-2,5-diphenyltetrazolium bromide (MTT). The 50% […], cytotoxic concentration (CC50 in μM) was defined as the concentration of compound that reduced the absorbance of the mock-infected control sample by 50%. The percent protection achieved by the compound in HIV-infected cells was calculated by the following formula: [formula]
(§2) whereby (ODT)HIV is the optical density measured with a given concentration of the test compound in HIV-infected cells; (ODC)HIV is the optical density measured for the control untreated HIV-infected cells; (ODC)MOCK is the optical density measured for the control untreated mock-infected cells; all optical density values were determined at 540 nm. The dose achieving 50% protection according to the above formula was defined as the 50% inhibitory concentration (IC50 in μM). The ratio of CC50 to IC50 was defined as the selectivity index (SI).

[2] = cytotoxicity in mock-infected MT-4 cells (MTT); details: human, mock-infected MT-4 cells
Procedure: as §1, §2

[3] = tested on: MT-4 cells; assay: cytotoxicity in mock-infected MT-4 cells (MTT)
Procedure: as §1, §2

[4] = Human immunodeficiency virus 1, MT4

With CC(C)NC(=O)Nc1nc(Cc2c(Cl)cccc2Cl)nc(Nc2ccc(C#N)cc2)n1 [Compound 6, N-[4-[(4-cyano-phenyl)amino]-6-[(2,6-dichlorophenyl)methyl]-1,3,5-triazin-2-yl]-N′-(1-methylethyl)-urea] as the compound, how does the melting point read?
Its melting point is 267 to 268 °C.

And the IC50 [1, 4]?
The IC50 was 380 nM.

And the SI [1]?
Its SI is >263.

Which CC50 [2] does the source give for CNc1nc(Cc2c(Cl)cccc2Cl)nc(Nc2ccc(C#N)cc2)n1 [Compound 7, 4-[[4-[(2,6-dichlorophenyl)methyl]-6-(methyl-amino)-1,3,5-triazin-2-yl]amino]benzonitrile] here?
The CC50 was > 100000 nM.

And the melting point?
The melting point was 229 to 230 °C.

And the IC50 [1, 4]?
Its IC50 is 10 nM.

What about the SI [1] of the same compound?
The SI was >14285.

What does the source list for NC(=O)c1ccc(Nc2nc(N)nc(Cc3c(Cl)ccc4[nH]ccc34)n2)cc1 [Compound 9, 4-[[4-amino-6-[(5-chloro-1H-indol-4-yl)methyl]-1,3,5-triazin-2-yl]amino]benzamide]?
melting point: 204 to 205 °C; IC50 [1, 4]: 66 nM; SI [1]: 830

Which CC50 [3] does the source give for COc1cc(Cc2nc(N)nc(Nc3ccc(C#N)cc3)n2)cc(OC)c1 [Compound 53] here?
Its CC50 is > 20000 nM.

What about the IC50 [1] of the same compound?
Its IC50 is 410 nM.

And the SI [1]?
The SI was >48.

For Cc1cc(C)c(C)c(Cc2nc(N)nc(Nc3ccc(C#N)cc3)n2)c1C [Compound 54], which CC50 [3] is on record?
Its CC50 is 43800 nM.

What about the IC50 [1] of the same compound?
The IC50 was 5 nM.

What about the SI [1] of the same compound?
The SI was 9515.

Which CC50 [3] does the source give for COc1ccc(Br)cc1Cc1nc(N)nc(Nc2ccc(C#N)cc2)n1 [Compound 55] here?
The CC50 was > 20000 nM.

And the IC50 [1]?
The IC50 was 52 nM.

What about the SI [1] of the same compound?
Its SI is >384.

What does the source list for N#Cc1ccc(Nc2nc(N)nc(Cc3cc(C(F)(F)F)ccc3C(F)(F)F)n2)cc1 [Compound 56]?
CC50 [3]: > 100000 nM; IC50 [1]: > 74400 nM

Which results are given for Cc1ccc(C)c(Cc2nc(N)nc(Nc3ccc(C#N)cc3)n2)c1 [Compound 57]?
CC50 [3]: 36800 nM; IC50 [1]: 3 nM; SI [1]: 11883

With N#Cc1ccc(Nc2nc(N)nc(Cc3c(F)cccc3C(F)(F)F)n2)cc1 [Compound 58] as the compound, how does the CC50 [3] read?
The CC50 was 20000 nM.

What about the IC50 [1] of the same compound?
Its IC50 is 14 nM.

And the SI [1]?
Its SI is 1418.

What does the source list for N#Cc1ccc(Nc2nc(N)nc(Cc3cc(F)cc(F)c3)n2)cc1 [Compound 59]?
CC50 [3]: > 100000 nM; IC50 [1]: 420 nM; SI [1]: >241

Which CC50 [3] does the source give for COc1ccc(C(C)=O)cc1Cc1nc(N)nc(Nc2ccc(C#N)cc2)n1 [Compound 60] here?
Its CC50 is 71400 nM.

What about the IC50 [1] of the same compound?
The IC50 was 39 nM.

What about the SI [1] of the same compound?
Its SI is 1841.

For CCO.Cl.N#Cc1ccc(Nc2nc(N)nc(C(CC3CC3)c3c(Cl)cccc3Cl)n2)cc1 (stereo not drawn) [Compound 61], which CC50 [3] is on record?
The CC50 was 53400 nM.

And the IC50 [1]?
Its IC50 is 6900 nM.

And the SI [1]?
Its SI is 7.

What does the source list for “(±)-2-[[4-[(4-cyanophenyl)amino]-6-[(2,6-dichlorophenyl)amino]-6-[(2,6-dichloro-phenyl)methyl]-1,3,5-triazin-2-yl]amino-4-hydroxybutanamide [Compound 34]”?
CC50 [3]: 42300 nM; IC50 [1]: 57 nM; SI [1]: 746
